Assay results taken from ChEMBL document CHEMBL5726547, “Substituted quinazolines as receptor-type kinase inhibitors” (2017).

Molecular target: Vascular endothelial growth factor receptor 1 (Homo sapiens, UniProt P17948)
Assay: AlphaScreen Assay: In AlphaScreen, when the donor and acceptor beads are close in proximity, a series of photochemical events will give rise to a fluorescent signal upon light activation. Here we use biotinylated poly-(Glu, Tyr) 4:1 as the kinase substrate, streptavidin-coated donor beads and anti-phosphortyrosine antibody PY100-coated acceptor beads. Upon phosphorylation, the peptide substrate …

Vascular endothelial growth factor receptor 1, sequence (P17948 whole entry): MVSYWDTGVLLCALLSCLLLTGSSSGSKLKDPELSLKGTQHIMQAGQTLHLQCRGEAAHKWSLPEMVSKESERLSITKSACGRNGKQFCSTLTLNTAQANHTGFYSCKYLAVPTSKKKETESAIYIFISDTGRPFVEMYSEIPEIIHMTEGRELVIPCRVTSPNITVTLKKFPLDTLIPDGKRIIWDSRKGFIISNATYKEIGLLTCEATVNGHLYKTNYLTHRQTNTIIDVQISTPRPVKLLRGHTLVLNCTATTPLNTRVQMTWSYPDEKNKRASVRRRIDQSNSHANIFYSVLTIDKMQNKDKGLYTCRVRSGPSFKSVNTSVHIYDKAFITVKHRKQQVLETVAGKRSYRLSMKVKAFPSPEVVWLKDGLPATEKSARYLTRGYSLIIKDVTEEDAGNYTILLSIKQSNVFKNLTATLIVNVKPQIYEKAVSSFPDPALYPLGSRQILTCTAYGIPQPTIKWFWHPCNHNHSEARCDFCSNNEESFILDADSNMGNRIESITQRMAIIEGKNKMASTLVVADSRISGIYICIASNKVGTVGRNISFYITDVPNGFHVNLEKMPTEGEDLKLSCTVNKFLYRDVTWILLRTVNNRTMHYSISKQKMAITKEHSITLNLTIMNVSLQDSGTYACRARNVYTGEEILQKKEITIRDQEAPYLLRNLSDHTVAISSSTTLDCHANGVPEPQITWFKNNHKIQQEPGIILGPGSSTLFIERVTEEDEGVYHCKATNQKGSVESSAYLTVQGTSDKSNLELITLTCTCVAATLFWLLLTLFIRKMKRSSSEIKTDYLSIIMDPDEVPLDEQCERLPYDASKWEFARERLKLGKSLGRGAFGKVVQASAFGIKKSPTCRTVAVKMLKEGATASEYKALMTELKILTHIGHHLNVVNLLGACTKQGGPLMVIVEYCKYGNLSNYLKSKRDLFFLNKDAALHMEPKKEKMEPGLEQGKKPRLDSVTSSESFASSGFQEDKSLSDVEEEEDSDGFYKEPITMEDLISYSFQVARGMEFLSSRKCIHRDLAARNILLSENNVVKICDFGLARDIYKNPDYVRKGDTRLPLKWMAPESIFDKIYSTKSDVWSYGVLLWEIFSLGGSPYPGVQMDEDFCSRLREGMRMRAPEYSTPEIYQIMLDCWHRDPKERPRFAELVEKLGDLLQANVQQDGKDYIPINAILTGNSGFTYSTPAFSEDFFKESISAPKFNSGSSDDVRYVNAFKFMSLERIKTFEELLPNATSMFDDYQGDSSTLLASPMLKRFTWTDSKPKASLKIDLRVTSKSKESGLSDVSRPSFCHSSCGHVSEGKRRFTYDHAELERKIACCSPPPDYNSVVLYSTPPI

**Q.** Which IC50 does the source give for COc1cc2c(Nc3cc(Cl)c(Br)cc3F)ncnc2cc1OC[C@H]1CN2CCOCC2CO1 (stereo not given in full) here?
**A.** 50 to 1000 nM

**Q.** How did the IC50 turn out when COc1cc2c(Nc3cc(Cl)c(Br)cc3F)ncnc2cc1OC[C@@H]1CN2CCOCC2CO1 (stereo not given in full) was run?
**A.** 50 to 1000 nM

**Q.** Which IC50 does the source give for COc1cc2c(Nc3ccc(F)c(Cl)c3F)ncnc2cc1OC[C@H]1CN2CCOCC2CO1 (stereo not given in full) here?
**A.** 50 to 1000 nM

**Q.** With COc1cc2c(Nc3cc(Cl)c(Cl)cc3F)ncnc2cc1OC[C@@H]1CN2CCOCC2CO1 (stereo not given in full) as the molecule, how does the IC50 read?
**A.** 50 to 1000 nM

**Q.** Which IC50 does the source give for COc1cc2c(Nc3ccc(Br)c(Cl)c3F)ncnc2cc1OC[C@H]1CN2CCOCC2CO1 (stereo not given in full) here?
**A.** 50 to 1000 nM

**Q.** With COc1cc2c(Nc3cc(Cl)c(Cl)cc3F)ncnc2cc1OC[C@H]1CN2CCOCC2CO1 (stereo not given in full) as the molecule, how does the IC50 read?
**A.** 50 to 1000 nM

**Q.** COc1cc2c(Nc3ccc(Cl)c(Cl)c3F)ncnc2cc1OC[C@H]1CN2CCOCC2CO1 (stereo not given in full) was tested. Which IC50 did it give?
**A.** 50 to 1000 nM

**Q.** With COc1cc2c(Nc3ccc(F)c(Cl)c3F)ncnc2cc1O[C@H]1CO[C@H]2[C@@H]1OC[C@@H]2OC as the molecule, how does the IC50 read?
**A.** 1000 to 20000 nM

**Q.** Which IC50 does the source give for COc1cc2c(Nc3ccc(Cl)c(Cl)c3F)ncnc2cc1OC[C@H]1C[C@@H]2CN(C)C[C@@H]2C1 here?
**A.** 50 to 1000 nM

**Q.** COc1cc2c(Nc3ccc(F)c(Cl)c3F)ncnc2cc1OC[C@@H]1CN2CCOCC2CO1 (stereo not given in full) was tested. Which IC50 did it give?
**A.** 50 to 1000 nM
